Experimental data as given in paper PMC10353061 (ACS Pharmacology & Translational Science, 2023).

Experiments:
[1] = tested on: HCC1937 cells; experiment: Cell proliferation by live-cell imaging (IncuCyte), HCC1937 TNBC cells; assay type: cell-based; details: 40 μM, 72 h
Experimental: (§1) As TNBC is a highly heterogeneous subgroup, including breast cancers with different molecular and phenotypic traits,[37] effects of compounds 5–10 on cell proliferation were also tested in additional TNBC cell lines, i.e., HCC1806 and HCC1937. As inhibitors of HCC1806 TNBC cells, compounds 5–10 were evaluated in parallel with compounds 3, ICG-001, and iCRT3 (Figures 10 and S12–S19, Supporting Information); as inhibitors of the HCC1937 TNBC cells, 5–10 were compared with 3 and iCRT3 (Figures 10, S20, and S21). Effects on cell proliferation were evaluated as above for the MDA-MB-231 TNBC cells at the latest time point of observation of 72 h.
(§2) Figure 10 Inhibition of MDA-MB-231, HCC1806, and HCC1937 TNBC cell growth by compounds 5–10 and reference compounds 3, […], and iCRT3 at 40 μM. Cell growth inhibition was quantified using the IncuCyte cell-by-cell analysis software, by comparison with the growth of DMSO-treated cells at 72 h, set at 100% (mean ± SD, n = 3, one-way ANOVA, **p ≤ 0.01, ****p ≤ 0.0001).
(§3) Cell proliferation of breast cancer cell lines upon continuous treatment with select compounds was evaluated by the real-time quantitative live-cell imaging system. MDA-MB-231 (1500 cells/well), HCC1806 (2000 cells/well), and HCC1937 (3000 cells/well) were seeded in 96-well plates, treated with increasing doses of selected compounds and images (5 images/well) were acquired every 8 h for 3 days at 10× magnification in an IncuCyte SX5 live-content imaging system (Essen Bioscience) at 37 °C with 5% CO2. Images were analyzed using IncuCyte cell-by-cell analysis software to detect and quantify live cells (phase-contrast). The number of cells at each time point was quantified using IncuCyte cell-by-cell analysis software, and cell growth was evaluated as the normalized ratio between counted cells at each time point normalized to those counted at time 0. Graph drawing and statistical analyses were performed in GraphPad Prism according to the statistical tests described in the figure legends.

[2] = tested on: Wnt/β-catenin signaling pathway; experiment: Topflash/Fopflash luciferase report assay in HCT116 cells; assay type: cell-based, human; details: 30 μM
From the text: We synthesized derivatives 5–10 bearing 5-membered and 6-membered heterocyclic rings at the position 3′ or 4′ of the B phenyl ring. […] SW480 cells show higher Wnt activation compared to HCT116 cells.[28] […] In SW480 cells, compounds 5–10 were in the 1.75%(10)–7.32%(7) range of residual luciferase activity, except 6(28.46%), compared to 3(21.61%); in HCT116 cells, compounds 5–10 were in the 0.37%(7)–5.88%(5) range, compared to 3 (18.75%) (Table 1 and Figure 5).
Figure 5 Residual luciferase activity (%) by compounds 5–10 and reference compound 3 in SW480 cells (left panel) and HCT116 cells (right panel). Data are represented as the mean ± SD of three independent experiments, each performed in triplicate.
Briefly, the Topflash plasmid (Beyotime, Zhejiang, China) contains 7 TCF/LEF binding sites, while the Fopflash plasmid (Beyotime, Zhejiang, China) contains 6 mutated TCF/LEF binding sites, which are located in the upstream of the luciferase reporter. SW480 and HCT116 cell lines were cultured in 90% DMEM (HyClone, #SH30243.01) plus 10% fetal bovine serum (Gibco, #10270) and plasmocin (mpp-39-03, InvivoGen), respectively. The Topflash/Fopflash vector and plasmid pTK-renilla together were co-transfected to the cells. […] The Dual-Glo luciferase assay kit (Promega, #E1910) was used to measure the luminescence intensity (Figure 2).

[3] = tested on: HCC1806 cells; experiment: Cell proliferation by live-cell imaging (IncuCyte), HCC1806 TNBC cells; assay type: cell-based; details: 40 μM, 72 h
Experimental: as §1, §2, §3

[4] = tested on: β-catenin/Tcf-4 interaction; experiment: Co-immunoprecipitation of β-catenin and Myc-tagged Tcf-4 in HCT116 cells; assay type: cell-based, human; details: HCT116 transfected with Myc-tagged Tcf-4, LiCl 50 mM, 50 μM, 24 h
Experimental: Toward this end, we performed a co-immunoprecipitation study in HCT116 cells transfected with Myc-tagged Tcf-4, treated with the two compounds, and immunoprecipitated with Myc antisera.
HCT116 cells were transiently transfected with the Myc-tagged Tcf-4 plasmid and treated with LiCl (50 mM) and 9 (50 μM) or 10 (50 μM) for 24 h. Lysates were immunoprecipitated using Myc-agarose beads and western blot analysis was performed. […] Myc-agarose beads saturated with the Myc-blocking peptide before immunoprecipitation were used as a negative control.
Co-immunoprecipitation assays were performed as previously described.[16],[60] Briefly, 2 × 10^4/cm^2 HCT116 cells were seeded in a 100 mm dish and incubated overnight at 37 °C. Cells were transfected with pcDNA/Myc Tcf-4 (Addgene plasmid #16512; http://n2t.net/addgene:16512; RRID:Addgene_16512)[29] and, after overnight incubation, were starved for 8 h in a medium containing Opti-MEM (#31985070, Thermo Fisher Scientific), FBS 0.5%, pen/strep 1%, NaPyr 1%, NeAA 1%, and then co-treated with 50 mM LiCl and DMSO or 50 μM compound 9 or 50 μM compound […] for 24 h. Cells were collected at the end of the treatments and lysed in a buffer containing 0.5% Triton X-100, 0.5 mM EDTA, and 1 mM DTT. […] Chemioluminescence was detected using WesternBright ECL (#K-12045-D50, Advansta), according to the manufacturer’s protocol.

[5] = tested on: Fgf20 and Sal4; experiment: Wnt-target gene mRNA levels (qPCR) in LiCl-treated HCT116 cells; assay type: cell-based, human; details: HCT116, LiCl 50 mM, 24 h, 10 μM
Experimental: To this end, HCT116 cells were treated for 24 h with 50 mM LiCl and increasing concentrations (10–50–100 μM) of the two compounds.
HCT116 was treated with LiCl (50 mM) and 10 μM compound 9 or 10 for 24 h. Fgf20, Sall4 (Wnt-target genes) mRNA levels were measured by qPCR and normalized to the expression of β-actin mRNA. Results are expressed as fold change relative to the control sample and represent the mean ± SD of three independent experiments, each performed in triplicate. *p < 0.05, **p < 0.01, ***p < 0.001 as determined by ANOVA.

O=S(=O)(Nc1ccc(-c2ccccn2)cc1)c1ccc(Br)cc1 [Compound 9, 4-Bromo-N-(4-(pyridin-2-yl)phenyl)benzenesulfonamide]
effect on HCC1937 cell growth [1]: less effective | % Luciferase Activity HCT116 (residual) [2]: 4.33% | effect on HCC1806 cell growth [3]: less effective | association between β-catenin and Tcf-4 (co-immunoprecipitation) [4]: completely abrogated the association | mRNA levels of Wnt-target genes Fgf20 and Sal4 [5]: strongly inhibited
